A value given as a limit tells only on which side of the number the result lay.

The target in the assay is T1, human vasopressin V1b receptor (Homo sapiens, UniProt P47901).
T1 construct: expressed in transfected cells; host or cells: CHO-K1 (cell line hV1b-3H2_CHO), membrane preparation
T1 sequence (P47901 1-424): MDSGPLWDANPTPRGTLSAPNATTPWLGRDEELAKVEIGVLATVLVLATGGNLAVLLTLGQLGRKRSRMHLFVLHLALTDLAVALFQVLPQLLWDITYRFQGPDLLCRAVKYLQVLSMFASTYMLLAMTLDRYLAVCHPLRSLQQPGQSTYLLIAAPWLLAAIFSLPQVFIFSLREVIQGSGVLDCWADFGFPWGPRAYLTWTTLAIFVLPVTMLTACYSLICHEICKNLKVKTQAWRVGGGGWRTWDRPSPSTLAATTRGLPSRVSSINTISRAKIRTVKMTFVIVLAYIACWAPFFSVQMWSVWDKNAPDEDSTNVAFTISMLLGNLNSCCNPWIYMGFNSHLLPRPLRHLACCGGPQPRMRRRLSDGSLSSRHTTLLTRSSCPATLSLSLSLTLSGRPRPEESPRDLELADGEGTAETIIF
The assay is described as follows: Vasopressin V1b receptor binding assay. Particulars: membranes from CHO-K1 cells with stably expressed human V1b receptors; displacement of 1.5 nM 3H-AVP; read-out: V1b receptor affinity (affinity constant Ki). The procedure, abridged:
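Membranes expressing human V1b receptor were incubated with radioligand and test compound (2% DMSO final) in 50 mM Tris, 10 mM MgCl2, 0.1% BSA, pH 7.4, for 60 min at room temperature, in triplicate. 1 uM AVP defined nonspecific binding. Bound ligand was separated by filtration and counted by scintillation; Ki came from nonlinear regression.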
On to `COc1ccc(S(=O)(=O)n2c(=O)n(C(C(=O)N3CCN(C4CCCNC4)CC3)c3ccccc3)c3cc(Cl)ccc32)cc1` (centres unmarked) [Example 165, 5-Chloro-1-(4-methoxybenzenesulfonyl)-3-[2-oxo-1-phenyl-2-(4-piperidin-3-ylpiperazin-1-yl)ethyl]-1,3-dihydrobenzimidazol-2-one], for which the Ki lay within 500 to 10000 nM. As for `COc1ccc(S(=O)(=O)n2c(=O)n(C(C(=O)N3CCN(C4CCN(C(=O)OC(C)(C)C)CC4)CC3)c3ccccc3)c3cc(Cl)ccc32)cc1` (centres unmarked) [Example 127, tert-Butyl 4-(4-{2-[6-chloro-3-(4-methoxybenzenesulfonyl)-2-oxo-2,3-dihydrobenzimidazol-1-yl]-2-phenylacetyl}piperazin-1-yl)piperidin-1-carboxylate], the figure is 500 to 10000 nM; as for `COc1ccc(S(=O)(=O)n2c(=O)n(C(C(=O)N3CC[C@H](N4CCN(C(C)C)CC4)C3)c3ccccc3)c3cc(C#N)ccc32)cc1` (stereo partly drawn) [Example 189, 3-{2-[(S)-3-(4-Isopropylpiperazin-1-yl)pyrrolidin-1-yl]-2-oxo-1-phenylethyl}-1-(4-methoxybenzenesulfonyl)-2-oxo-2,3-dihydro-1H-benzimidazole-5-carbonitrile], under 100 nM; as for `CCCN1CCN(C[C@H]2CCN(C(=O)C(c3ccccc3)n3c(=O)n(S(=O)(=O)c4ccc(OC)cc4)c4ccc(C#N)cc43)C2)CC1` (stereo partly drawn) [Example 235, 1-(4-Methoxy-benzenesulfonyl)-2-oxo-3-{2-oxo-1-phenyl-2-[(R)-3-(4-propylpiperazin-1-ylmethyl)-pyrrolidin-1-yl]-ethyl}-2,3-dihydro-1H-benzoimidazole-5-carbonitrile; compound with trifluoroacetic acid], under 100 nM.

On to `COc1ccc(S(=O)(=O)n2c(=O)n(C(C(=O)N3CCN(C4CCN(C)CC4)CC3)c3ccccc3)c3ccccc32)cc1` (centres unmarked) [Example 60, 1-(4-Methoxybenzenesulfonyl)-3-{2-[4-(1-methylpiperidin-4-yl)piperazin-1-yl]-2-oxo-1-phenyl-ethyl}-1,3-dihydrobenzimidazol-2-one], for which the inhibitory constant (Ki) was 500 to 10000 nM.

Turning to `COc1ccc(S(=O)(=O)n2c(=O)n(C(C(=O)N3CCN(c4ccncc4)CC3)c3ccccc3)c3cc(Cl)c(Cl)cc32)c(OC)c1` (centres unmarked) [Example 59, 5,6-Dichloro-1-(2,4-dimethoxybenzenesulfonyl)-3-[2-oxo-1-phenyl-2-(4-pyridin-4-ylpiperazin-1-yl)ethyl]-1,3-dihydrobenzoimidaz], the Ki was in the range of 500 to 10000 nM. `CCCN1CCN([C@H]2CCN(C(=O)C(c3ccccc3)n3c(=O)n(S(=O)(=O)c4ccccc4)c4ccc(C#N)cc43)C2)CC1` (stereo partly drawn) [Example 202, 1-Benzenesulfonyl-2-oxo-3-{2-oxo-1-phenyl-2-[(S)-3-(4-propylpiperazin-1-yl)-pyrrolidin-1-yl]ethyl}-2,3-dihydro-1H-benzimidazole-5-carbonitrile]: the inhibition constant (Ki) is 100 to 500 nM. Take `COc1ccc(S(=O)(=O)n2c(=O)n(C(C(=O)N3CCN(c4ccncc4)CC3)c3ccccc3)c3cc(I)ccc32)cc1` (centres unmarked) [Example 4, 5-Iodo-1-(4-methoxybenzenesulfonyl)-3-[2-oxo-1-phenyl-2-(4-pyridin-4-ylpiperazin-1-yl)ethyl]-1,3-dihydrobenzimidazol-2-one]: the Ki is under 100 nM. In the case of `COc1ccc(S(=O)(=O)n2c(=O)n(C(C(=O)N3CCN(c4ccncc4)CC3)c3ccccc3)c3ccccc32)cc1` (centres unmarked) [Example 41, 1-(4-Methoxybenzenesulfonyl)-3-[2-oxo-1-phenyl-2-(4-pyridin-4-ylpiperazin-1-yl)ethyl]-1,3-dihydrobenzimidazol-2-one] it was 500 to 10000 nM; in that of `CCCN1CCN(C2CCN(C(=O)C(c3ccccc3OC)n3c(=O)n(S(=O)(=O)c4ccc(OC)cc4)c4ccc(Cl)cc43)C2)CC1` (centres unmarked) [Example 76, 5-Chloro-1-(4-methoxybenzenesulfonyl)-3-{1-(2-methoxyphenyl)-2-oxo-2-[3-(4-propylpiperazin-1-yl)pyrrolidin-1-yl]ethyl}-1,3-dihydrobenzimidazol-2-one], under 100 nM; in that of `COc1ccc(S(=O)(=O)n2c(=O)n(C(C(=O)N3CCN(c4ccncc4)CC3)c3ccccc3)c3ccc(Cl)cc32)cc1` (centres unmarked) [Example 73, 5-Chloro-3-(4-methoxybenzenesulfonyl)-1-[2-oxo-1-phenyl-2-(4-pyridin-4-ylpiperazin-1-yl)-ethyl]-1,3-dihydrobenzimidazol-2-one], 100 to 500 nM. As for `CCCN1CCN(C2CCN(C(=O)C(c3ccccc3)n3c(=O)n(S(=O)(=O)c4ccc(OC)cc4)c4ccc(Cl)cc43)CC2)CC1` (centres unmarked) [Example 17, 5-Chloro-1-(4-methoxybenzenesulfonyl)-3-{2-oxo-1-phenyl-2-[4-(4-propylpiperazin-1-yl)piperidin-1-yl]ethyl}-1,3-dihydrobenzimidazol-2-one], the figure is under 100 nM. As to `COc1ccc(S(=O)(=O)n2c(=O)n(C(C(=O)N3CCN(c4ccncc4)CC3)c3ccccc3)c3cc(C#N)ccc32)cc1` (centres unmarked) [Example 46, 1-(4-Methoxybenzenesulfonyl)-2-oxo-3-[2-oxo-1-phenyl-2-(4-pyridin-4-ylpiperazin-1-yl)ethyl]-2,3-dihydro-1H-benzimidazole-5-carbonitrile], the Ki is 100 to 500 nM. In the case of `CCCN1CCN(C2CCN(C(=O)C(Cc3ccccc3)n3c(=O)n(S(=O)(=O)c4ccc(OC)cc4)c4ccc(Cl)cc43)C2)CC1` (centres unmarked) [Example 81, 3-{1-Benzyl-2-oxo-2-[3-(4-propylpiperazin-1-yl)pyrrolidin-1-yl]ethyl}-5-chloro-1-(4-methoxybenzenesulfonyl)-1,3-dihydrobenzimidazol-2-one] it was 100 to 500 nM; in that of `O=C(C(c1ccccc1)n1c(=O)n(S(=O)(=O)c2cccs2)c2ccc(Cl)cc21)N1CCN(c2ccncc2)CC1` (centres unmarked) [Example 44, 5-Chloro-3-[2-oxo-1-phenyl-2-(4-pyridin-4-ylpiperazin-1-yl)ethyl]-1-(thiophene-2-sulfonyl)-1,3-dihydrobenzimidazol-2-one], 100 to 500 nM; in that of `COc1cccc(C(C(=O)N2CCN(c3ccncc3)CC2)n2c(=O)n(S(=O)(=O)c3ccc(OC)cc3OC)c3ccc(Cl)cc32)c1` (centres unmarked) [Example 21, 5-Chloro-1-(2,4-dimethoxybenzenesulfonyl)-3-[1-(3-methoxyphenyl)-2-oxo-2-(4-pyridin-4-ylpiperazin-1-yl)-ethyl]-1,3-dihydrobenzimidazol-2-one], 100 to 500 nM. On to `COc1ccc(S(=O)(=O)n2c(=O)n(C(C(=O)NCCN3CCN(C)CC3)c3ccccc3)c3cc(Cl)ccc32)cc1` (centres unmarked) [Example 115, 2-[6-Chloro-3-(4-methoxybenzenesulfonyl)-2-oxo-2,3-dihydrobenzimidazol-1-yl]-N-[2-(4-methylpiperazin-1-yl)ethyl]-2-phenylacetamide], for which the inhibitory constant (Ki) was 100 to 500 nM.

`CCCN1CCN([C@@H]2CCN(C(=O)C(c3ccccc3)n3c(=O)n(S(=O)(=O)c4ccc(OC)cc4)c4ccc(Cl)cc43)C2)CC1` (stereo partly drawn) [Example 157, 5-Chloro-1-(4-methoxybenzenesulfonyl)-3-{2-oxo-1-phenyl-2-[(R)-3-(4-propylpiperazin-1-yl)pyrrolidin-1-yl]ethyl}-1,3-dihydrobenzimidazol-2-one]: the Ki is under 100 nM.

Turning to `COc1ccc(S(=O)(=O)n2c(=O)n(C(C)C(=O)N3CCN(c4ccncc4)CC3)c3cc(Cl)ccc32)cc1` (centres unmarked) [Example 30, 5-Chloro-1-(4-methoxybenzenesulfonyl)-3-[1-methyl-2-oxo-2-(4-pyridin-4-ylpiperazin-1-yl)-ethyl]-1,3-dihydrobenzimidazol-2-one], the inhibition constant Ki was 500 to 10000 nM. Consider `COc1ccc(S(=O)(=O)n2c(=O)n(C(C(=O)N3CC[C@H](N4CCNCC4)C3)c3ccccc3)c3cc(Cl)ccc32)cc1` (stereo partly drawn) [Example 149, 5-Chloro-1-(4-methoxybenzenesulfonyl)-3-[2-oxo-1-phenyl-2-((S)-3-piperazin-1-ylpyrrolidin-1-yl)ethyl]-1,3-dihydrobenzimidazol-2-one], for which the inhibition constant (Ki) was under 100 nM. With `COc1ccc(S(=O)(=O)n2c(=O)n(C(C(=O)N3CCC(N4CCN(C)CC4)CC3)c3ccccc3)c3ccccc32)c(OC)c1` (centres unmarked) [Example 72, 1-(2,4-Dimethoxybenzenesulfonyl)-3-{2-[4-(4-methylpiperazin-1-yl)piperidin-1-yl]-2-oxo-1-phenylethyl}-1,3-dihydrobenzimidazol-2-one], the Ki lay within 500 to 10000 nM.

As to `CCCN1CCN([C@@H]2CCN(C(=O)C(c3ccccc3)n3c(=O)n(S(=O)(=O)c4ccc(OC)cc4)c4ccc(C#N)cc43)C2)CC1` (stereo partly drawn) [Example 163, 1-(4-Methoxybenzenesulfonyl)-2-oxo-3-{2-oxo-1-phenyl-2-[(R)-3-(4-propylpiperazin-1-yl)pyrrolidin-1-yl]ethyl}-2,3-dihydro-1H-benzimidazole-5-carbonitrile], the Ki fell in the range of 100 to 500 nM.

On to `COc1ccc(S(=O)(=O)n2c(=O)n(C(C(=O)N3CCC[C@H]3c3ncon3)c3ccccc3)c3cc(Cl)ccc32)cc1` (stereo partly drawn) [Example 110, 5-Chloro-1-(4-methoxybenzenesulfonyl)-3-[2-((S)-2-[1,2,4]oxadiazol-3-ylpyrrolidin-1-yl)-2-oxo-1-phenylethyl]-1,3-dihydrobenzimidazol-2-one], for which the Ki was in the range of 100 to 500 nM.

The Ki is a dissociation constant, usually derived from enzyme kinetics or from competition with a known ligand.
